Assay results as given in ChEMBL document CHEMBL3885881, “DrugMatrix”.

Organism: Rattus norvegicus
Assay: DrugMatrix - Regimen: Daily Repeat
Type: toxicity, organism-based, Sprague-Dawley
Parameters: regimen Daily Repeat, gender Male, age 6-8 weeks
Conditions: in vivo, po, route oral GAVAGE, vehicle .5 % CMC; for ABSOLUTE BASOPHIL / ABSOLUTE EOSINOPHIL / ABSOLUTE LYMPHOCYTE / ABSOLUTE MONOCYTE / ABSOLUTE SEGMENTED NEUTROPHIL / BASOPHIL / EOSINOPHIL / ERYTHROCYTE COUNT / HEMATOCRIT / HEMOGLOBIN / LEUKOCYTE COUNT / LYMPHOCYTE / MEAN CORPUSCULAR HEMOGLOBIN / MEAN CORPUSCULAR HEMOGLOBIN CONCENTRATION / MEAN CORPUSCULAR VOLUME / MONOCYTE / NEUTROPHIL / NUCLEATED RED BLOOD CELLS / PLATELET COUNT: tissue Blood; for ALANINE AMINOTRANSFERASE / ALBUMIN / ALKALINE PHOSPHATASE / ASPARTATE AMINOTRANSFERASE / BLOOD UREA NITROGEN / CARBON DIOXIDE / CHLORIDE / CHOLESTEROL / CREATINE PHOSPHOKINASE / CREATININE / GLUCOSE / LACTATE DEHYDROGENASE / LIPASE / PHOSPHORUS / POTASSIUM / SODIUM / TOTAL BILIRUBIN / TOTAL PROTEIN / URIC ACID: tissue Plasma
[1] = 20 mg/kg, 120 h, dose level Low, time 5 day
[2] = 1500 mg/kg, 72 h, dose level High, time 3 day
[3] = 1500 mg/kg, 120 h, dose level High, time 5 day

In the case of `CC(C)(C)NC(=O)[C@@H]1C[C@@H]2CCCC[C@@H]2CN1C[C@@H](O)[C@H](Cc1ccccc1)NC(=O)[C@H](CC(N)=O)NC(=O)c1ccc2ccccc2n1`, the “ABSOLUTE BASOPHIL” value [1] is reported as 0 CELLS/uL, the “ABSOLUTE EOSINOPHIL” value [1] is reported as 247 CELLS/uL and the “ABSOLUTE LYMPHOCYTE” value [1] is reported as 11820.33 CELLS/uL. The “ABSOLUTE MONOCYTE” value [1] was 0 CELLS/uL, the “ABSOLUTE SEGMENTED NEUTROPHIL” value [1] was 1032.67 CELLS/uL and the BASOPHIL [1] was 0%. For the same molecule, the EOSINOPHIL [1] was 2%, the “ERYTHROCYTE COUNT” value [1] was 5.22 x10E6/uL and the HEMATOCRIT [1] was 32.83%. The HEMOGLOBIN [1] was 12.53 G/DL, the “LEUKOCYTE COUNT” value [1] was 13.1 x10E3/uL and the LYMPHOCYTE [1] was 90.33%. The “MEAN CORPUSCULAR HEMOGLOBIN” value [1] was 24.03 pg, the “MEAN CORPUSCULAR HEMOGLOBIN CONCENTRATION” value [1] was 38.2 G/DL and the “MEAN CORPUSCULAR VOLUME” value [1] was 63.03 fL. For the same molecule, the MONOCYTE [1] was 0%, the NEUTROPHIL [1] was 7.67% and the “NUCLEATED RED BLOOD CELLS” value [1] was 0 /100WBC. The “PLATELET COUNT” value [1] was 1193.67 x10E3/uL, the “ALANINE AMINOTRANSFERASE” value [1] was 53.33 u/L and the ALBUMIN [1] was 4.33 G/DL. For the same molecule, the “ALKALINE PHOSPHATASE” value [1] was 341.67 u/L, the “ASPARTATE AMINOTRANSFERASE” value [1] was 80.67 u/L and the “BLOOD UREA NITROGEN” value [1] was 18 mg/dL. For the same molecule, the “CARBON DIOXIDE” value [1] was 25.33 mmol/L, the CHLORIDE [1] was 102.67 MEQ/L and the CHOLESTEROL [1] was 79.33 mg/dL. For the same molecule, the “CREATINE PHOSPHOKINASE” value [1] was 166.33 u/L, the CREATININE [1] was 0.19 mg/dL and the GLUCOSE [1] was 146.67 mg/dL. The “LACTATE DEHYDROGENASE” value [1] was 98.33 u/L, the LIPASE [1] was 8.67 u/L and the PHOSPHORUS [1] was 11.57 mg/dL. The POTASSIUM [1] was 5.98 MEQ/L, the SODIUM [1] was 144.17 MEQ/L and the “TOTAL BILIRUBIN” value [1] was 0.17 mg/dL. For the same molecule, the “TOTAL PROTEIN” value [1] was 6.37 G/DL, the “URIC ACID” value [1] was 1.27 mg/dL and the “ABSOLUTE BASOPHIL” value [2] was 0 CELLS/uL. The “ABSOLUTE EOSINOPHIL” value [2] was 137.33 CELLS/uL, the “ABSOLUTE LYMPHOCYTE” value [2] was 12869.33 CELLS/uL and the “ABSOLUTE MONOCYTE” value [2] was 0 CELLS/uL. The “ABSOLUTE SEGMENTED NEUTROPHIL” value [2] was 1126.67 CELLS/uL, the BASOPHIL [2] was 0% and the EOSINOPHIL [2] was 1%. The “ERYTHROCYTE COUNT” value [2] was 6.18 x10E6/uL, the HEMATOCRIT [2] was 38.67% and the HEMOGLOBIN [2] was 14.47 G/DL. For the same molecule, the “LEUKOCYTE COUNT” value [2] was 14.13 x10E3/uL, the LYMPHOCYTE [2] was 91% and the “MEAN CORPUSCULAR HEMOGLOBIN” value [2] was 23.47 pg. For the same molecule, the “MEAN CORPUSCULAR HEMOGLOBIN CONCENTRATION” value [2] was 37.4 G/DL, the “MEAN CORPUSCULAR VOLUME” value [2] was 62.63 fL and the MONOCYTE [2] was 0%. For the same molecule, the NEUTROPHIL [2] was 8%, the “NUCLEATED RED BLOOD CELLS” value [2] was 0 /100WBC and the “PLATELET COUNT” value [2] was 1247.33 x10E3/uL. For the same molecule, the “ALANINE AMINOTRANSFERASE” value [2] was 48.67 u/L, the ALBUMIN [2] was 4.4 G/DL and the “ALKALINE PHOSPHATASE” value [2] was 408 u/L. The “ASPARTATE AMINOTRANSFERASE” value [2] was 76.67 u/L, the “BLOOD UREA NITROGEN” value [2] was 14 mg/dL and the “CARBON DIOXIDE” value [2] was 26.67 mmol/L. For the same molecule, the CHLORIDE [2] was 99.67 MEQ/L, the CHOLESTEROL [2] was 80 mg/dL and the “CREATINE PHOSPHOKINASE” value [2] was 218.33 u/L. The CREATININE [2] was 0.15 mg/dL, the GLUCOSE [2] was 162 mg/dL and the “LACTATE DEHYDROGENASE” value [2] was 94.33 u/L. For the same molecule, the LIPASE [2] was 8.67 u/L, the PHOSPHORUS [2] was 12.5 mg/dL and the POTASSIUM [2] was 6.95 MEQ/L. The SODIUM [2] was 144.6 MEQ/L, the “TOTAL BILIRUBIN” value [2] was 0.17 mg/dL and the “TOTAL PROTEIN” value [2] was 6.17 G/DL. The “URIC ACID” value [2] was 1.83 mg/dL, the “ABSOLUTE BASOPHIL” value [3] was 0 CELLS/uL and the “ABSOLUTE EOSINOPHIL” value [3] was 190 CELLS/uL. For the same molecule, the “ABSOLUTE LYMPHOCYTE” value [3] was 12822 CELLS/uL, the “ABSOLUTE MONOCYTE” value [3] was 0 CELLS/uL and the “ABSOLUTE SEGMENTED NEUTROPHIL” value [3] was 1388 CELLS/uL. For the same molecule, the BASOPHIL [3] was 0%, the EOSINOPHIL [3] was 1.33% and the “ERYTHROCYTE COUNT” value [3] was 5.33 x10E6/uL. For the same molecule, the HEMATOCRIT [3] was 33.83%, the HEMOGLOBIN [3] was 13.1 G/DL and the “LEUKOCYTE COUNT” value [3] was 14.4 x10E3/uL. The LYMPHOCYTE [3] was 89.33%, the “MEAN CORPUSCULAR HEMOGLOBIN” value [3] was 24.63 pg and the “MEAN CORPUSCULAR HEMOGLOBIN CONCENTRATION” value [3] was 38.73 G/DL. The “MEAN CORPUSCULAR VOLUME” value [3] was 63.53 fL, the MONOCYTE [3] was 0% and the NEUTROPHIL [3] was 9.33%. For the same molecule, the “NUCLEATED RED BLOOD CELLS” value [3] was 0 /100WBC, the “PLATELET COUNT” value [3] was 1411.67 x10E3/uL and the “ALANINE AMINOTRANSFERASE” value [3] was 48 u/L. The ALBUMIN [3] was 4.4 G/DL, the “ALKALINE PHOSPHATASE” value [3] was 396.33 u/L and the “ASPARTATE AMINOTRANSFERASE” value [3] was 69 u/L. For the same molecule, the “BLOOD UREA NITROGEN” value [3] was 15.67 mg/dL, the “CARBON DIOXIDE” value [3] was 25.67 mmol/L and the CHLORIDE [3] was 103.33 MEQ/L. The CHOLESTEROL [3] was 71.67 mg/dL, the “CREATINE PHOSPHOKINASE” value [3] was 233.33 u/L and the CREATININE [3] was 0.17 mg/dL. For the same molecule, the GLUCOSE [3] was 169 mg/dL, the “LACTATE DEHYDROGENASE” value [3] was 123.33 u/L and the LIPASE [3] was 8.33 u/L. It also gave a PHOSPHORUS [3] of 12.8 mg/dL, a POTASSIUM [3] of 6.57 MEQ/L and an SODIUM [3] of 145.83 MEQ/L. For the same molecule, the “TOTAL BILIRUBIN” value [3] was 0.23 mg/dL, the “TOTAL PROTEIN” value [3] was 6.23 G/DL and the “URIC ACID” value [3] was 1.7 mg/dL.
